In US20250354979A1, “DRUG EVALUATION METHOD, REAGENT, AND KIT” (FUJIFILM Corporation, priority 2023, published 2025):

Legend:
[1] = test system: human iPS cell-derived myocardial cells; experiment: Heart rate of myocardial cells by MEA extracellular potential, serum-free culture medium without additive; format: cell-based; details: no pretreatment
Protocol: (§1) Reference Example 1: Method and results of evaluating effect on heart rate in a case where muscarinic receptor agonist (carbachol) is added to serum-free culture medium Human iPS cell-derived myocardial cells (iCell myocardial cells 2.0, manufactured by FUJIFILM Cellular Dynamics, Inc.) in a frozen state were thawed, suspended in a thawing culture medium (iCell myocardial cell thawing culture medium, manufactured by FUJIFILM Cellular Dynamics, Inc.), and then seeded at a cell density of 50,000 cells per well on a MEA plate (Cyto View MEA 48, manufactured by Axion BioSystems, Inc.). The seeding density of myocardial cells in the vicinity of the electrode was 2,736 cells/mm^2. […]
(§2) On the day of measurement, the MEA plate on which the human iPS cell-derived myocardial cells were cultured was placed in an MEA system (Maestro Pro, manufactured by Axion BioSystems, Inc.), and the extracellular potential was measured after 20 minutes (medium control, carbachol concentration: 0 μmol/L). Subsequently, 0.01 μmol/L of carbachol (manufactured by Tokyo Chemical Industry Co., Ltd.) was added to the MEA plate, and then the extracellular potential was measured after 20 minutes from the addition. Similarly, carbachol was added to give concentrations of 0.1 μmol/L, 1 μmol/L, and 10 μmol/L, and then the extracellular potential was measured at each concentration after 20 minutes from the addition. […]

[2] = test system: human iPS cell-derived myocardial cells; experiment: Heart rate of myocardial cells by MEA, maintenance culture medium containing serum; format: cell-based
Source text: as §1, with “Comparative” for “Reference”, “decrease in” for “effect on”, “by” for “in a case where”, “using maintenance” for “is added to serum-free”, “2,798” for “2,736”
as §2, with “concentration.” for “concentration after 20 minutes from the addition.”

CN1[C@@H]2CC[C@H]1C[C@@H](OC(=O)C(CO)c1ccccc1)C2 (stereo partly shown) [atropine]
increase in heart rate ([1]; atropine 0.01-1 μmol/L): No clear increase in heart rate | increase in heart rate ([2]; atropine 0.01-1 μmol/L): No clear increase in heart rate

C[N+](C)(C)CCOC(N)=O [carbachol]
decrease in heart rate ([1]; carbachol 0.01-10 μmol/L, 20 minutes after each addition, vs medium control): up to 15% | decrease in heart rate ([2]; carbachol 0.01-10 μmol/L): No clear decrease in heart rate
